Source: patent publication US10023592B2, “Bromodomain inhibitors” (Celgene Quanticel Research, Inc., priority 2013, dated 2018)

Columns and labels:
[1] = test system: NCI-H460, human non-small cell lung cancer cells; test: Cell-MTS proliferation assay, NCI-H460; type: cell-based; details: 168 hr
Method in brief: (§1)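 Seeded for ~90% confluence at 7 days (Raji 15,000, HL-60 5,000, NCI-H460 3,000 cells/well); compound added 24 h post-plating as 11-point dilution, 100 μM to 2.0 nM final.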

[2] = test system: Raji, human Burkitts lymphoma cells; test: Cell-MTS proliferation assay, Raji; type: cell-based; details: 168 hr
Method in brief: as §1

[3] = test system: HL-60, human proleukemia cells; test: Cell-MTS proliferation assay, HL-60; type: cell-based; details: 168 hr
Method in brief: as §1

BRD4(BD1) = BRD4(BD1) (Homo sapiens (Human), UniProt O60885); test: In vitro enzyme inhibition assay (BRD4 AlphaScreen); type: binding
Method in brief: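 His-tagged BRD4 tested by AlphaScreen for binding of biotinylated H4K5/8/12/16-tetraacetyl peptide. After 20 min at room temperature, streptavidin donor and nickel chelate acceptor beads added (5 μg/mL final each). IC50 determined.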

[4] = Homo sapiens, Cell-MTS proliferation, NCI-H460 cells
[5] = Homo sapiens, Cell-MTS proliferation, Raji cells
[6] = Homo sapiens, Cell-MTS proliferation, HL-60 cells
[7] = in vitro enzyme inhibition assay
[8] = Homo sapiens, NCI-H460, Cell-MTS proliferation
[9] = Homo sapiens, Raji, Cell-MTS proliferation
[10] = Homo sapiens, HL-60, Cell-MTS proliferation
[11] = Homo sapiens, NCI-H460, Cell-MTS, class symbols A/B/C
[12] = Homo sapiens, Raji, Cell-MTS, class symbols A/B/C
[13] = Homo sapiens, HL-60, Cell-MTS, class symbols A/B/C

Compound	IC50 [1, 4] [µM]	IC50 [2, 5] [nM]	IC50 [3, 6] [nM]	IC50 (BRD4(BD1); [7]) [nM]	IC50 [1, 8] [µM]	IC50 [2, 9] [nM]	IC50 [3, 10] [nM]	also measured
CCS(=O)(=O)c1ccc(NCC2CC2)c(-c2ccc(=O)n(C)c2)c1 [Example 473, 5-[2-(cyclopropylmethylamino)-5-ethylsulfonylphenyl]-1-methylpyridin-2-one]	> 5	500 to 5000	< 500	< 500				
CCS(=O)(=O)Nc1ccc(Oc2ccc(F)cc2F)c(-c2cn(C)c(=O)c3ncoc23)c1 [Example 240, N-[4-(2,4-difluorophenoxy)-3-(5-methyl-4-oxo-[1,3]oxazolo[4,5-c]pyridin-7-yl)phenyl]ethanesulfonamide]				< 500	> 5	< 500	< 500	
CCS(=O)(=O)c1cccc(-c2cn(C)c(=O)c3cc(F)ccc23)c1 [Example 63, 4-(3-ethylsulfonylphenyl)-7-fluoro-2-methylisoquinolin-1-one]								IC50 [1, 11]: > 5 µM; IC50 [2, 12]: 500 to 5000 nM; IC50 [3, 13]: 500 to 5000 nM; IC50 (BRD4(BD1); class symbols A/B/C): 500 to 5000 nM
COc1cc(-c2nc(S(C)(=O)=O)ncc2Oc2ccc(F)cc2F)cn(C)c1=O [Example 150, 5-[5-(2,4-difluorophenoxy)-2-methylsulfonylpyrimidin-4-yl]-3-methoxy-1-methylpyridin-2-one]				< 500	> 5	500 to 5000	500 to 5000	
Cn1cc(-c2cc(NS(C)(=O)=O)c(F)cc2OCC2CC2)c2c(c1=O)CCCC2 [Example 218, N-[4-(cyclopropylmethoxy)-2-fluoro-5-(2-methyl-1-oxo-5,6,7,8-tetrahydroisoquinolin-4-yl)phenyl]methanesulfonamide]				< 500	> 5	500 to 5000	< 500	
Cc1cc(-c2cc(S(C)(=O)=O)ccc2Nc2ccc(F)cc2F)cn(C)c1=O [Example 398, 5-[2-(2,4-difluoroanilino)-5-methylsulfonylphenyl]-1,3-dimethylpyridin-2-one]	> 5	500 to 5000	< 500	< 500				
Cc1cc(-c2cc(S(C)(=O)=O)ccc2OCC2CC2)cn(CC(C)C)c1=O [Example 243, 5-[2-(cyclopropylmethoxy)-5-methylsulfonylphenyl]-3-methyl-1-(2-methylpropyl)pyridin-2-one]				500 to 5000	> 5	> 5000	500 to 5000	
CC#CCOc1ccc(S(C)(=O)=O)cc1-c1cn(C)c(=O)c2ccccc12 [Example 184, 4-(2-but-2-ynoxy-5-methylsulfonylphenyl)-2-methylisoquinolin-1-one]				< 500	0.5 to 5	500 to 5000	< 500	
CCS(=O)(=O)Nc1cccc(-c2cn(C)c(=O)c3ccncc23)c1 [Example 123, N-[3-(2-methyl-1-oxo-2,6-naphthyridin-4-yl)phenyl]ethanesulfonamide]								IC50 [1, 11]: > 5 µM; IC50 [2, 12]: 500 to 5000 nM; IC50 [3, 13]: 500 to 5000 nM; IC50 (BRD4(BD1); class symbols A/B/C): 500 to 5000 nM
4-[5-(cyclopropylmethoxy)-2-methylsulfonylpyridin-4-yl]-7-fluoro-2-methylisoquinolin-1-one [Example 203]				< 500				IC50 ([1]; Cell-MTS proliferation): > 5 µM; IC50 ([2]; Cell-MTS proliferation): < 500 nM; IC50 ([3]; Cell-MTS proliferation): < 500 nM
COc1cc(-c2cc(CS(C)(=O)=O)ccc2Oc2ccc(F)cc2F)cn(C)c1=O [Example 400, 5-[2-(2,4-difluorophenoxy)-5-(methylsulfonylmethyl)phenyl]-3-methoxy-1-methylpyridin-2-one]	> 5	< 500	< 500	< 500				
CCS(=O)(=O)c1ccc(NCC2CC2)c(-c2cc(C)c(=O)n(C)c2)c1 [Example 465, 5-[2-(cyclopropylmethylamino)-5-ethylsulfonylphenyl]-1,3-dimethylpyridin-2-one]	> 5	< 500	< 500	< 500				
Cn1cc(-c2cc(S(C)(=O)=O)ccc2OCC2CC2)c2ccoc2c1=O [Example 254, 4-[2-(cyclopropylmethoxy)-5-methylsulfonylphenyl]-6-methylfuro[2,3-c]pyridine-7-one]				< 500	> 5	< 500	< 500	
CCS(=O)(=O)Nc1ccc(OCC2CC2)c(-c2cn(C)c(=O)c3sc(C(N)=O)cc23)c1 [Example 266, 4-[2-(cyclopropylmethoxy)-5-(ethylsulfonylamino)phenyl]-6-methyl-7-oxothieno[2,3-c]pyridine-2-carboxamide]				< 500	> 5	< 500	< 500	
Cc1cc(-c2cc(S(C)(=O)=O)ccc2OC2CCOC2)cn(C)c1=O (stereo not shown) [Example 426, 1,3-dimethyl-5-[5-methylsulfonyl-2-(oxolan-3-yloxy)phenyl]pyridin-2-one]	> 5	500 to 5000	500 to 5000	< 500				
CCS(=O)(=O)c1ccc(OCC2CC2)c(-c2cn(C)c(=O)c3occc23)c1 [Example 252, 4-[2-(cyclopropylmethoxy)-5-ethylsulfonylphenyl]-6-methylfuro[2,3-c]pyridine-7-one]				< 500	> 5	< 500	< 500	
CCS(=O)(=O)c1ccc(OC2CCCC2)c(-c2cn(C)c(=O)c3cncn23)c1 [Example 374, 5-(2-cyclopentyloxy-5-ethylsulfonylphenyl)-7-methylimidazo[1,5-a]pyrazin-8-one]	> 5	< 500	< 500	< 500				
CCS(=O)(=O)c1ccc(OCC2CC2)c(-c2cn(C)c(=O)c3cnc(-c4cnn(C)c4)nc23)c1 [Example 226, 8-[2-(cyclopropylmethoxy)-5-ethylsulfonylphenyl]-6-methyl-2-(1-methylpyrazol-4-yl)pyrido[4,3-d]pyrimidin-5-one]				< 500	> 5	< 500	< 500	
CCS(=O)(=O)c1ccc(OCC2CC2)c(-c2cc(OC(F)F)c(=O)n(C)c2)c1 [Example 287, 5-[2-(cyclopropylmethoxy)-5-ethylsulfonylphenyl]-3-(difluoromethoxy)-1-methylpyridin-2-one]				< 500	> 5	500 to 5000	< 500	
Cc1cc(-c2cc(OCc3ccccc3OC(F)F)cc(S(C)(=O)=O)c2)cn(C)c1=O [Example 333, 5-[3-[[2-(difluoromethoxy)phenyl]methoxy]-5-methylsulfonylphenyl]-1,3-dimethylpyridin-2-one]				< 500	> 5	500 to 5000	< 500	
CCc1cnc(NS(=O)(=O)CC)nc1-c1cc(C)c(=O)n(C)c1 [Example 307, N-[4-(1,5-dimethyl-6-oxopyridin-3-yl)-5-ethylpyrimidin-2-yl] ethanesulfonamide]				< 500	> 5	< 500	< 500	
CCS(=O)(=O)Nc1ccc(Oc2ccc(F)cc2F)c(-c2cn(C)c(=O)c3nncn23)c1 [Example 236, N-[4-(2,4-difluorophenoxy)-3-(7-methyl-8-oxo-[1,2,4]triazolo[4,3-a]pyrazin-5-yl)phenyl]ethanesulfonamide]				< 500	> 5	> 5000	500 to 5000	
CCS(=O)(=O)Nc1cnc(OCC2CC2)c(-c2cn(C)c(=O)c3sc(C(N)=O)cc23)c1 [Example 268, 4-[2-(cyclopropylmethoxy)-5-(ethylsulfonylamino)pyridin-3-yl]-6-methyl-7-oxothieno[2,3-c]pyridine-2-carboxamide]				< 500	> 5	500 to 5000	< 500	
CCS(=O)(=O)Nc1ccc(Oc2ccc(F)cc2F)c(-c2cc(C)c(=O)n(C)c2)c1 [Example 472, N-[4-(2,4-difluorophenoxy)-3-(1,5-dimethyl-6-oxopyridin-3-yl)phenyl]ethanesulfonamide]	> 5	< 500	< 500	< 500				
COCC1COc2cc(S(C)(=O)=O)cc(-c3cn(C)c(=O)c4ccccc34)c2O1 (stereo not shown) [Example 497, 4-[3-(methoxymethyl)-7-methylsulfonyl-2,3-dihydro-1,4-benzodioxin-5-yl]-2-methylisoquinolin-1-one]	> 5	500 to 5000	500 to 5000	< 500				
CCS(=O)(=O)c1ccc(OCC2CC2)c(-c2cc(F)c(=O)n(C)c2)c1 [Example 274, 5-[2-(cyclopropylmethoxy)-5-ethylsulfonylphenyl]-3-fluoro-1-methylpyridin-2-one]				< 500	> 5	500 to 5000	500 to 5000	
CCS(=O)(=O)Nc1ccc(OC2CCOC2)c(-c2cc(C)c(=O)n(C)c2)c1 (stereo not shown) [Example 445, N-[3-(1,5-dimethyl-6-oxopyridin-3-yl)-4-(oxolan-3-yloxy)phenyl]ethanesulfonamide]	> 5	< 500	< 500	< 500				
CCS(=O)(=O)Nc1ccc(Oc2ccc(F)cc2F)c(-c2cc(N)c(=O)n(C)c2)c1 [Example 115, N-[3-(5-amino-1-methyl-6-oxopyridin-3-yl)-4-(2,4-difluorophenoxy)phenyl]ethanesulfonamide]								IC50 [1, 11]: > 5 µM; IC50 [2, 12]: < 500 nM; IC50 [3, 13]: < 500 nM; IC50 (BRD4(BD1); class symbols A/B/C): < 500 nM
